From paper PMC7555839 (Frontiers in Microbiology, 2020)
Read-outs that look alike come from different tables or passages of the source.

Key:
[1] = test system: S. aureus ATCC-BAA; experiment: Agar dilution MIC; assay type: cell-based; details: Staphylococcus aureus, MHA plates
Description: (§1) Initially, MHA plates with JBC 1847 concentrations ranging from 0.5 to 8 mg/L were made and bacterial inoculum was prepared as previously described, was added to each plate. […] The MIC values for the two S. aureus strains were both determined to 4 mg/L and therefore, TSA plates with a JBC 1847 concentration of 2 mg/L were prepared to ensure the strains were able to grow. One dish of each type of antibiotic was added to a single TSA plate with JBC 1847 and a control plate containing only TSA and inoculated as previously described. Two plates containing only 2 mg/L JBC 1847 and bacterial inoculum for each strain served as a positive control. After incubation, clearing zones were measured and compared between control and JBC 1847 plates.

[2] = test system: S. aureus USA300 JE2; experiment: Agar dilution MIC; assay type: cell-based; details: Staphylococcus aureus, MHA plates
Description: as §1

[3] = test system: Escherichia coli E2 (in house strain); experiment: Broth microdilution (MIC/MBC); assay type: cell-based; details: E2, human clinical isolate
[4] = test system: E. coli APEC O2 (in house strain); experiment: Broth microdilution (MIC/MBC); assay type: cell-based; details: Escherichia coli; APEC O2, veterinary clinical isolate
[5] = test system: Enterococcus faecium ATCC 700221; experiment: Broth microdilution (MIC/MBC); assay type: cell-based; details: ATCC700221, ATCC 700221, human clinical isolate
[6] = test system: Salmonella typhimurium TA98
[7] = test system: S. aureus CC398 (in house strain); experiment: Broth microdilution (MIC/MBC); assay type: cell-based; details: Staphylococcus aureus; CC398, veterinary clinical isolate
[8] = test system: S. aureus ATCC BAA-1556; experiment: Broth microdilution with 20% human serum; assay type: cell-based, Staphylococcus aureus
Description: (§2) In addition, whether serum proteins affected the activity of JBC 1847 against three S. aureus strains (USA300 JE2, ATCC BAA-1556 and CC398 in house strain) was investigated. Broth microdilution assays analog to previously described, with a 20% human serum (Sigma-Aldrich, Brøndby, Denmark) concentration were carried for three S. aureus strains (Table 1). MIC and MBC values were determined as previously described.

[9] = test system: S. aureus USA300 JE2; experiment: Broth microdilution with 20% human serum; assay type: cell-based, Staphylococcus aureus
Description: as §2

[10] = test system: S. aureus CC398 in house strain; experiment: Broth microdilution with 20% human serum; assay type: cell-based, Staphylococcus aureus
Description: as §2

[11] = test system: S. aureus ATCC BAA-1556; experiment: Broth microdilution (MIC/MBC); assay type: cell-based; details: Staphylococcus aureus, ATCCBAA1556; ATCC BAA-1556, human clinical isolate
[12] = test system: Salmonella typhimurium TA1535
[13] = test system: Enterococcus faecalis JEO72G7B; experiment: Broth microdilution (MIC/MBC); assay type: cell-based; details: veterinary clinical isolate
[14] = test system: eight Gram-positive pathogenic bacteria; experiment: Broth microdilution, summary over Gram-positive isolates; assay type: cell-based
[15] = test system: Escherichia coli mutant [wp2 (pKM101)]
[16] = test system: Salmonella typhimurium TA1537; experiment: Ames test; details: for Mutagenicity ratio (MR): TA1537, 4 μg/well
[17] = test system: Staphylococcus epidermidis RP62a; experiment: Broth microdilution (MIC/MBC); assay type: cell-based; details: human clinical isolate
[18] = test system: MRSA USA300; experiment: Transmission electron microscopy; assay type: cell-based, Staphylococcus aureus; details: concentration corresponding to the MIC, 1 h, vs untreated control
Description: To elucidate the interaction between JBC 1847 and MRSA USA300, transmission electron microscopy (TEM) was carried out. Bacterial cultures were inoculated in 10 ml MHB and cultivated at 37°C for 5 h, with shaking, until mid-exponential growth phase ([…]). […] An untreated control was also prepared. The five samples were placed on ice until being prepared for TEM. This included a fixation step in 2% glutaraldehyde in 0.15 M sodium phosphate buffer (pH 7.2). Subsequently, the fixed cells were washed three times and postfixed with 0.2% OsO4 (osmium tetroxide) in H2O/0.15 M sodium phosphate buffer (pH 7.2) for 1 h. The samples were then dehydrated with graded acetone, and then embedded in epoxy resin. Ultrathin sections of the samples were prepared using Formvar-coated copper grids, which were stained using 3% uranyl acetate. The samples were placed in a Philips CM 100 Transmission EM (Philips, Eindhoven, Netherlands) and exposed to 120 keV electron energy.

[19] = 20% human serum vs assay without serum
[20] = Staphylococcus aureus, ATCCBAA1556, 20% human serum
[21] = Staphylococcus aureus, 20% human serum

Q: What does the source list for `CC(C)=CCCC(C)CC[N+](C)(C)CCCN1c2ccccc2Sc2ccccc21` (stereo not drawn) [JBC 1847]?
A: MIC [1]: 4 µg/mL; MIC [2]: 4 µg/mL; MBC [3]: 8 µg/mL; MIC [3]: 8 µg/mL; MBC [4]: 16 µg/mL; MIC [4]: 16 µg/mL; MBC [5]: 2 to 4 µg/mL; MIC [5]: 2 µg/mL; Mean number of reverse mutated colonies ([6]; TA98, + S9, 1.5 μg/well): 11.00 ± 2.65; Mean number of reverse mutated colonies ([6]; TA98, + S9, 4 μg/well): 11.33 ± 3.79; Mean number of reverse mutated colonies ([6]; TA98, + S9, 10 μg/well): 13.67 ± 4.04; Mean number of reverse mutated colonies ([6]; TA98, + S9, 64 μg/well): 0.0; Mean number of reverse mutated colonies ([6]; TA98, −S9, 1.5 μg/well): 13.00 ± 2.00; Mean number of reverse mutated colonies ([6]; TA98, −S9, 4 μg/well): 9.00 ± 2.00; Mean number of reverse mutated colonies ([6]; TA98, −S9, 10 μg/well): 9.67 ± 3.51; Mean number of reverse mutated colonies ([6]; TA98, −S9, 25 μg/well): 0.0; Mean number of reverse mutated colonies ([6]; TA98, −S9, 64 μg/well): 0.0; MBC [7]: 0.5 µg/mL; MIC [7]: 0.5 µg/mL; Increase in MBC with human serum [8, 19]: 128 fold; Increase in MIC with human serum [8, 19]: 128 fold; MBC [8, 20]: 64 µg/mL; MIC [8, 20]: 64 µg/mL; Increase in MBC with human serum [9, 19]: 128 fold; Increase in MIC with human serum [9, 19]: 128 fold; MBC [9, 21]: 64 µg/mL; MIC [9, 21]: 64 µg/mL; Increase in MBC with human serum [10, 19]: 128 fold; Increase in MIC with human serum [10, 19]: 128 fold; MBC [10, 21]: 64 µg/mL; MIC [10, 21]: 64 µg/mL; MBC [11]: 0.5 µg/mL; MIC [11]: 0.5 µg/mL; Mean number of reverse mutated colonies ([12]; TA1535, + S9, 1.5 μg/well): 24.33 ± 3.21; Mean number of reverse mutated colonies ([12]; TA1535, + S9, 4 μg/well): 26.67 ± 2.08; Mean number of reverse mutated colonies ([12]; TA1535, + S9, 10 μg/well): 18.00 ± 5.57; Mean number of reverse mutated colonies ([12]; TA1535, + S9, 64 μg/well): 0.0; Mean number of reverse mutated colonies ([12]; TA1535, −S9, 1.5 μg/well): 24.33 ± 3.21; Mean number of reverse mutated colonies ([12]; TA1535, −S9, 4 μg/well): 26.67 ± 2.08; Mean number of reverse mutated colonies ([12]; TA1535, −S9, 10 μg/well): 18.00 ± 5.57; Mean number of reverse mutated colonies ([12]; TA1535, −S9, 25 μg/well): 0.0; Mean number of reverse mutated colonies ([12]; TA1535, −S9, 64 μg/well): 0.0; MBC [13]: 1 µg/mL; MIC [13]: 1 µg/mL; MIC values (range over isolates) [14]: 0.5 to 2 µg/mL; Mean number of reverse mutated colonies ([15]; + S9, 1.5 μg/well): 51.33 ± 12.86; Mean number of reverse mutated colonies ([15]; + S9, 4 μg/well): 40.67 ± 9.07; Mean number of reverse mutated colonies ([15]; + S9, 10 μg/well): 40.67 ± 13.32; Mean number of reverse mutated colonies ([15]; + S9, 25 μg/well): 9.67 ± 2.08; Mean number of reverse mutated colonies ([15]; + S9, 64 μg/well): 0.0; Mean number of reverse mutated colonies ([15]; −S9, 1.5 μg/well): 33.00 ± 2.65; Mean number of reverse mutated colonies ([15]; −S9, 4 μg/well): 39.33 ± 5.69; Mean number of reverse mutated colonies ([15]; −S9, 10 μg/well): 17.33 ± 7.09; Mean number of reverse mutated colonies ([15]; −S9, 64 μg/well): 0.0; Mutagenicity ratio (MR) ([16]; absence of S9): above 2; Mutagenicity ratio (MR) ([16]; presence of S9): above 2; Mean number of reverse mutated colonies ([16]; TA1537, + S9, 1.5 μg/well): 2.00 ± 2.65; Mean number of reverse mutated colonies ([16]; TA1537, + S9, 10 μg/well): 0.33 ± 0.58; Mean number of reverse mutated colonies ([16]; TA1537, + S9, 64 μg/well): 0.0; Mean number of reverse mutated colonies ([16]; TA1537, −S9, 1.5 μg/well): 5.00 ± 1.00; Mean number of reverse mutated colonies ([16]; TA1537, −S9, 64 μg/well): 0.0; MIC [17]: 0.5 µg/mL; TEM appearance of bacterial cells [18]: clearly lysed and the plasma membrane destroyed
